# Results taken from patent US20260242391A1 (priority 2023, published 2026).
# pEC50, pIC50: −log10 of the molar value. Where two headings read alike, the source gives them in different places.
# Tests used:
# [1] = test system: MDS-L cells; conditions: for Induction of differentiation of MDS-L cells (GlyA positivity), in words: anti-GlyA immunopositivity; for pEC50: read-out: MDS-L GlyA induction EC50
# Method: MDS-L differentiation assay.
# (§1) MDS-L were cultured in RPMI (17-105-CV, Corning) without phenol red and supplemented with 2 mM glutamine and 10% FBS. Cells first expanded in IL-3 until 70% confluence then pre-conditioned for 14 days with IL-3 (200-03, PeproTech), GCSF (300-23, PeproTech), and EPO (287-TC, R&D Systems) to promote erythroid and myeloid differentiation. A density of 10,000 cells per well were used in phenotypic assays. MDSL cells were spun and treatment media was replaced with media containing APC Anti-CD235a (GlyA) (551336, BD Biosciences) (1.25 μL per 50 L test) and incubated for 1 hour at 4° C. Cells were washed then counter stained with SYTOX-Green 1 M per 100 L prior to flow cytometry analysis. Dose response and pharmacological assays were analyzed using a ZE5 Cell Analyzer (BioRad) equipped with Everest software. Single, live, cells were analyzed for GlyA expression using FlowJo v10.7.2 software.
# [2] = test system: HL-60; assay: HL-60 differentiation potency; format: cell-based; conditions: Homo sapiens
# [3] = test system: HL-60
# [4] = test system: MDS-L cells; assay: cells; conditions: read-out: MDS-L GlyA induction EC50
# Method: MDS-L differentiation assay.
# as §1
# [5] = test system: HL-60; assay: HL-60 differentiation potency; format: cell-based; conditions: Homo sapiens; remark: listed apart in the source
# [6] = in vitro; conditions: human
# [7] = MDS-L cells, anti-CD235a (GlyA) flow cytometry
pEC50 [5],pIC50 [6],Compound,also measured
7.00,5.61,"C[C@H]1[C@@H](Oc2ccc(C(=O)N3CC(C(=O)O)C3)cc2Cl)O[C@@H]2O[C@@]3(C)CC[C@H]4[C@H](C)CC[C@@H]1[C@@]24OO3 [Compound 244, 1-(3-chloro-4-(((3R,5aS,6R,8aS, 9R,10S,12R, 12aR)-3,6,9-trimethyldeca-hydro-12H-3,12-epoxy[1,2]dioxepino[4,3-i]isochromen-10-yl)oxy)benzoyl) azetidine-3-carboxylic acid]",
7.95,7.52,"C[C@H]1[C@@H](OCc2ccc(-c3nnc(CC(=O)O)o3)cc2)O[C@@H]2O[C@@]3(C)CC[C@H]4[C@H](C)CC[C@@H]1[C@@]24OO3 [Compound 304, 2-(5-(4-((((3R,5aS,6R,8aS, 9R,10S,12R, 12aR)-3,6,9-trimethyldeca-hydro-12H-3,12-epoxy[1,2]dioxepino[4,3-i]isochromen-10-yl)oxy)methyl)phenyl)-1,3,4-oxadiazol-2-yl)acetic acid]",
7.90,5.32,"C[C@H]1[C@@H](Oc2ccc([C@H](C)C(=O)O)cc2F)O[C@@H]2O[C@@]3(C)CC[C@H]4[C@H](C)CC[C@@H]1[C@@]24OO3 [Compound 282, (S)-2-(3-fluoro-4-(((3R,5aS,6R,8aS, 9R,10S,12R, 12aR)-3,6,9-trimethyldeca-hydro-12H-3,12-epoxy[1,2]dioxepino[4,3-i]isochromen-10-yl)oxy)phenyl) propanoic acid]",
7.16,6.43,"C[C@H]1[C@@H](Oc2ccc3[nH]c(C(=O)O)cc3c2)O[C@@H]2O[C@@]3(C)CC[C@H]4[C@H](C)CC[C@@H]1[C@@]24OO3 [Compound 208, 5-(((3R,5aS,6R,8aS, 9R,10S,12R, 12aR)-3,6,9-trimethyldeca-hydro-12H-3,12-epoxy[1,2]dioxepino[4,3-i]isochromen-10-yl)oxy)-1H-indole-2-carboxylic acid]",
7.20,5.40,"C[C@H]1[C@@H](Oc2cc(Cl)cc(CC(=O)O)c2)O[C@@H]2O[C@@]3(C)CC[C@H]4[C@H](C)CC[C@@H]1[C@@]24OO3 [Compound 186, 2-(3-chloro-5-(((3R,5aS,6R,8aS, 9R,10S,12R, 12aR)-3,6,9-trimethyldeca-hydro-12H-3,12-epoxy[1,2]dioxepino[4,3-i]isochromen-10-yl)oxy)phenyl) acetic acid]",
7.21,4.88,"C[C@H]1[C@@H](Oc2ccc(COCC(=O)O)cc2)O[C@@H]2O[C@@]3(C)CC[C@H]4[C@H](C)CC[C@@H]1[C@@]24OO3 [Compound 219, 2-((4-(((3R,5aS,6R,8aS, 9R,10S,12R, 12aR)-3,6,9-trimethyldeca-hydro-12H-3,12-epoxy[1,2]dioxepino[4,3-i]isochromen-10-yl)oxy)benzyl)oxy)acetic acid]",
7.39,< 4.70,"C[C@H]1[C@@H](Oc2ccc(C3(C(=O)O)COC3)cc2)O[C@@H]2O[C@@]3(C)CC[C@H]4[C@H](C)CC[C@@H]1[C@@]24OO3 [Compound 283, 3-(4-(((3R,5aS,6R,8aS, 9R,10S,12R, 12aR)-3,6,9-trimethyldeca-hydro-12H-3,12-epoxy[1,2]dioxepino[4,3-i]isochromen-10-yl)oxy)phenyl) oxetane-3-carboxylic acid]",

# The next lines start with the compound.
Compound,pEC50 [5],pIC50 [6],also measured
"CCCCCCCCCCCCCC(=O)O[C@@H]1[C@@H](C)[C@@]2(O)[C@@H](C=C(CO)C[C@]3(O)C(=O)C(C)=C[C@@H]23)[C@@H]2C(C)(C)[C@]12OC(C)=O [phorbol 12-myristate 13-acetate (PMA), phorbol 12-myristate 13-acetate]",,,"Induction of differentiation of MDS-L cells (GlyA positivity), in words ([1]; MDS-L cells): efficacious at inducing differentiation"
"C[C@H]1[C@H](Oc2cc(F)c(CC(=O)O)c(F)c2)O[C@@H]2O[C@@]3(C)CC[C@H]4[C@H](C)CC[C@@H]1[C@@]24OO3 [Compound 14, 2-(2,6-difluoro-4-(((3R,5aS,6R, 8aS,9R,10R,12R, 12aR)-3,6,9-trimethyldeca-hydro-12H-3,12-epoxy[1,2]dioxepino[4,3-i]isochromen-10-yl)oxy)phenyl) acetic acid]",,,pEC50 [2]: 7.04; pIC50 [3]: 4.70
"C[C@H]1[C@@H](Oc2cc(F)c(CC(=O)O)c(F)c2)O[C@@H]2O[C@@]3(C)CC[C@H]4[C@H](C)CC[C@@H]1[C@@]24OO3 [Compound 22, 2-(2,6-difluoro-4-(((3R,5aS,6R, 8aS,9R,10S,12R, 12aR)-3,6,9-trimethyldeca-hydro-12H-3,12-epoxy[1,2]dioxepino[4,3-i]isochromen-10-yl)oxy)phenyl) acetic acid]",,,pEC50 [2]: 6.88; pIC50 [3]: 4.70
"C[C@H]1[C@@H](OCc2ccc(C(=O)O)cc2)O[C@@H]2O[C@@]3(C)CC[C@H]4[C@H](C)CC[C@@H]1[C@@]24OO3 [Artelinic acid (artelinate), artelinate]",,,Maximal MDS-L GlyA fold induction ([1]; human): 7.26 fold; pEC50 [4]: 7.52
"C[C@H]1[C@@H](O)O[C@@H]2O[C@@]3(C)CC[C@H]4[C@H](C)CC[C@@H]1[C@@]24OO3 [Dihydroartemisin, dihydro- artemisinin]",,,Maximal MDS-L GlyA fold induction ([1]; human): 7.09 fold; pEC50 [4]: 6.21
C[C@@H]1CC[C@H]2[C@@H](C)C(=O)O[C@@H]3O[C@@]4(C)CC[C@@H]1[C@]32O4 [2-deoxy-artemisinin],,,"Induction of differentiation of MDS-L cells (GlyA positivity), in words ([1]; MDS-L cells): inactive"
"C[C@H]1[C@H](OC(=O)CCC(=O)O)O[C@@H]2O[C@@]3(C)CC[C@H]4[C@H](C)CC[C@@H]1[C@@]24OO3 [Artesunate, artesunate]",,,Maximal MDS-L GlyA fold induction ([1]; human): 7.51 fold; pEC50 [4]: 6.07
Cc1c(-c2ccc(-c3ccccc3F)cc2)nc2ccc(F)cc2c1C(=O)O [Brequinar],,,"Induction of differentiation of MDS-L cells (GlyA positivity), in words ([1]; MDS-L cells): efficacious at inducing differentiation"
"CC1=C(/C=C/C(C)=C/C=C/C(C)=C/C(=O)O)C(C)(C)CCC1 [ATRA, retinoic acid]",,,Cytotoxicity as readout by live dead cell gating ([1]; MDS-L cells): minimal cytotoxicity
Arterolane [Arterolane (OZ-277)],,,"Maximal MDS-L GlyA fold induction [1, 7]: 7.02 fold; pEC50 [1, 7]: 5.76"
"CC(C)[C@H](NC(=O)c1ccc(O[C@H]2O[C@@H]3O[C@@]4(C)CC[C@H]5[C@H](C)CC[C@@H]([C@H]2C)[C@@]35OO4)cc1)C(=O)O [Compound 236, (4-(((3R,5aS,6R,8aS, 9R,10S,12R, 12aR)-3,6,9-trimethyldeca-hydro-12H-3,12-epoxy[1,2]dioxepino[4,3-i]isochromen-10-yl)oxy)benzoyl)-L-valine]",7.32,5.04,
"CC(C(=O)N[C@H]1CC[C@@H](C(=O)O)C1)c1ccc(O[C@H]2O[C@@H]3O[C@@]4(C)CC[C@H]5[C@H](C)CC[C@@H]([C@H]2C)[C@@]35OO4)c(F)c1 (stereo partly drawn) [Compound 306, (1R,3S)-3-(2-(3-fluoro-4-(((3R,5aS,6R,8aS, 9R,10S,12R, 12aR)-3,6,9-trimethyldeca-hydro-12H-3,12-epoxy[1,2]dioxepino[4,3-i]isochromen-10-yl)oxy)phenyl)propanamido) cyclopentane-1-carboxylic acid]",7.88,6.16,
"C[C@H]1[C@@H](Oc2ccc(C(=O)N[C@H](C(=O)O)C(C)(C)O)cc2)O[C@@H]2O[C@@]3(C)CC[C@H]4[C@H](C)CC[C@@H]1[C@@]24OO3 [Compound 254, (S)-3-hydroxy-3-methyl-2-(4-(((3R,5aS,6R,8aS, 9R,10S,12R, 12aR)-3,6,9-trimethyldeca-hydro-12H-3,12-epoxy[1,2]dioxepino[4,3-i]isochromen-10-yl)oxy)benzamido) butanoic acid]",5.34,< 4.70,
"C[C@H]1[C@@H](OC/C=C/[C@]2(F)CC[C@H](C(=O)O)CC2)O[C@@H]2O[C@@]3(C)CC[C@H]4[C@H](C)CC[C@@H]1[C@@]24OO3 [Compound 271, (1S,4r)-4-fluoro-4-((E)-3-(((3R,5aS,6R,8aS, 9R,10S,12R, 12aR)-3,6,9-trimethyldeca-hydro-12H-3,12-epoxy[1,2]dioxepino[4,3-i]isochromen-10-yl)oxy)prop-1-en-1-yl) cyclohexane-1-carboxylic acid]",7.03,4.72,
"C[C@H]1[C@@H](OCc2ccc(C(=O)N[C@H](C(=O)O)C(C)(C)C)cc2)O[C@@H]2O[C@@]3(C)CC[C@H]4[C@H](C)CC[C@@H]1[C@@]24OO3 [Compound 281, (S)-3,3-dimethyl-2-(4-((((3R,5aS,6R,8aS, 9R,10S,12R, 12aR)-3,6,9-trimethyldeca-hydro-12H-3,12-epoxy[1,2]dioxepino[4,3-i]isochromen-10-yl)oxy)methyl)benzamido) butanoic acid]",6.95,6.37,
"C[C@H]1[C@@H](OCC23[C@H]4[C@H]5[C@@H]2[C@H]2[C@@H]3[C@@H]4C52C(=O)O)O[C@@H]2O[C@@]3(C)CC[C@H]4[C@H](C)CC[C@@H]1[C@@]24OO3 (stereo partly drawn) [Compound 253, (2S,3S,5S,6S,7S, 8S)-4-((((3R,5aS,6R,8aS, 9R,10S,12R, 12aR)-3,6,9-trimethyldeca-hydro-12H-3,12-epoxy[1,2]dioxepino[4,3-i]isochromen-10-yl)oxy)methyl) cubane-1-carboxylic acid]",6.62,< 4.70,
"C[C@H]1[C@@H](OCC(=O)Nc2ccc(C(=O)O)cc2)O[C@@H]2O[C@@]3(C)CC[C@H]4[C@H](C)CC[C@@H]1[C@@]24OO3 [Compound 213, 4-(2-(((3R,5aS,6R,8aS, 9R,10S,12R, 12aR)-3,6,9-trimethyldeca-hydro-12H-3,12-epoxy[1,2]dioxepino[4,3-i]isochromen-10-yl)oxy)actamido) benzoic acid]",6.49,< 4.70,
Artefenomel [Artefenomel (OZ-439)],,,"Maximal MDS-L GlyA fold induction [1, 7]: 3.71 fold; pEC50 [1, 7]: 5.25"
